Source: patent US20260297060A1, “COMPOUNDS FOR THE DEGRADATION OF MUTANT BRAF” (C4 THERAPEUTICS, INC., priority 2023, published 2026)
Read-outs that look alike come from different tables or passages of the source.

Molecular target: T1, BRAF V600E (Homo sapiens, UniProt P15056+Q96SW2, V600E)
T1 construct: knock-in of the HiBiT tag to the endogenous BRAF V600E locus; host or cells: A375.10 (A375 clonal line, CRISPR HiBiT knock-in at the endogenous BRAF V600E locus)
Assay: BRAF V600E HiBiT Degradation Assay
Type: cell-based
In short: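 Endogenous HiBiT knock-in on BRAF V600E in A375 cells (clone A375.10); 11-point half-log series, top 10 μM, 2, 6 or 24 h at 37° C. Lytic HiBiT luminescence, background-subtracted, normalized to DMSO; 4-parameter fit gives DC50, Emax (residual protein) and IP (inflection point).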

[1] = A375.10 cells, BRAF V600E, 2 hours, inflection point, read-out: HiBiT-Degradation A375.10 BRAF 2 hours IP
[2] = A375.10 cells, BRAF V600E, 2 hours, read-out: HiBiT-Degradation A375.10 BRAF 2 hours DC50
[3] = A375.10 cells, BRAF V600E, 2 hours, residual protein remaining, read-out: HiBiT-Degradation A375.10 BRAF 2 hours Emax
[4] = A375.10 cells, BRAF V600E, 6 hours, inflection point, read-out: HiBiT-Degradation A375.10 BRAF 6 hours IP
[5] = A375.10 cells, BRAF V600E, 6 hours, read-out: HiBiT-Degradation A375.10 BRAF 6 hours DC50
[6] = A375.10 cells, BRAF V600E, 6 hours, residual protein remaining, read-out: HiBiT-Degradation A375.10 BRAF 6 hours Emax
[7] = A375.10 cells, HiBiT, BRAF V600E, 24 hours, read-out: HiBiT-Degradation A375.10 BRAF 24 hours DC50
[8] = A375.10 cells, HiBiT, BRAF V600E, 24 hours, read-out: HiBiT-Degradation A375.10 BRAF 24 hours Emax
[9] = A375.10 cells, HiBiT, BRAF V600E, 24 hours, read-out: HiBiT-Degradation A375.10 BRAF 24 hours IP
[10] = A375.10 cells, BRAF V600E, 6 hours, residual protein remaining
[11] = A375.10 cells, HiBiT, BRAF V600E, 24 hours
[12] = read-out: HiBiT-Degradation A375.10 BRAF 2 hours Emax, A375.10 cells, BRAF V600E, 2 hours, residual protein remaining

T1 sequence (P15056 whole entry V600E): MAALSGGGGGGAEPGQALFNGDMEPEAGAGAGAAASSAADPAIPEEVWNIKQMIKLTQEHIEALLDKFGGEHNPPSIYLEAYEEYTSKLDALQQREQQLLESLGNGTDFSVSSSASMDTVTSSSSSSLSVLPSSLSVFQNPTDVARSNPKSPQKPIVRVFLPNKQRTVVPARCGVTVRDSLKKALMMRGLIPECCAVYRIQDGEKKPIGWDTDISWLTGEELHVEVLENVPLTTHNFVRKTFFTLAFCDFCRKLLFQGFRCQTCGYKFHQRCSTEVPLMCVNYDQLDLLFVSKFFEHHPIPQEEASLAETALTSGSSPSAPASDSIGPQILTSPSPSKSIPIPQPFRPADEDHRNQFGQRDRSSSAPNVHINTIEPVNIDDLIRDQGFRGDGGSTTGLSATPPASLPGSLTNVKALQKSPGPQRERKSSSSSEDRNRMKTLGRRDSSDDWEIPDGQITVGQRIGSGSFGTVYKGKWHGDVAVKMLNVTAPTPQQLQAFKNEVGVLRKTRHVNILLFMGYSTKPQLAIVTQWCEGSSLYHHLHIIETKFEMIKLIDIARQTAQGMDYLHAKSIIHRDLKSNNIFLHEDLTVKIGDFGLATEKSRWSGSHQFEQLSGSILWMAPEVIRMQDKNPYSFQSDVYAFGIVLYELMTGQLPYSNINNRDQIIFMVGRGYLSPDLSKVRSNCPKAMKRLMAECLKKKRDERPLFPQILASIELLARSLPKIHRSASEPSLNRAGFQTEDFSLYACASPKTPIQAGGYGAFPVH
T1 sequence (Q96SW2 whole entry): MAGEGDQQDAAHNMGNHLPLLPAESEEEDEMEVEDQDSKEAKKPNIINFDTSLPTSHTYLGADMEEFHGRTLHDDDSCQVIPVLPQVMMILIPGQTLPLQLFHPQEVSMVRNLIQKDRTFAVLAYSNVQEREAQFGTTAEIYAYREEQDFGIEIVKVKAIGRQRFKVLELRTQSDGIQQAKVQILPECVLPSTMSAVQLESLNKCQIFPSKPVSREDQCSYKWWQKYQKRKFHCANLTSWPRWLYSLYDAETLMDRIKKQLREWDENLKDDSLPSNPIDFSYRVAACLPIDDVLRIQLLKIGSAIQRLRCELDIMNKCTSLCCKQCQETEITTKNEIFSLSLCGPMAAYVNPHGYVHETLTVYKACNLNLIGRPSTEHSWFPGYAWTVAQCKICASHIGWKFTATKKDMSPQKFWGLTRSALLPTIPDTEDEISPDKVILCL
T1 sequence (Q16531 whole entry partner): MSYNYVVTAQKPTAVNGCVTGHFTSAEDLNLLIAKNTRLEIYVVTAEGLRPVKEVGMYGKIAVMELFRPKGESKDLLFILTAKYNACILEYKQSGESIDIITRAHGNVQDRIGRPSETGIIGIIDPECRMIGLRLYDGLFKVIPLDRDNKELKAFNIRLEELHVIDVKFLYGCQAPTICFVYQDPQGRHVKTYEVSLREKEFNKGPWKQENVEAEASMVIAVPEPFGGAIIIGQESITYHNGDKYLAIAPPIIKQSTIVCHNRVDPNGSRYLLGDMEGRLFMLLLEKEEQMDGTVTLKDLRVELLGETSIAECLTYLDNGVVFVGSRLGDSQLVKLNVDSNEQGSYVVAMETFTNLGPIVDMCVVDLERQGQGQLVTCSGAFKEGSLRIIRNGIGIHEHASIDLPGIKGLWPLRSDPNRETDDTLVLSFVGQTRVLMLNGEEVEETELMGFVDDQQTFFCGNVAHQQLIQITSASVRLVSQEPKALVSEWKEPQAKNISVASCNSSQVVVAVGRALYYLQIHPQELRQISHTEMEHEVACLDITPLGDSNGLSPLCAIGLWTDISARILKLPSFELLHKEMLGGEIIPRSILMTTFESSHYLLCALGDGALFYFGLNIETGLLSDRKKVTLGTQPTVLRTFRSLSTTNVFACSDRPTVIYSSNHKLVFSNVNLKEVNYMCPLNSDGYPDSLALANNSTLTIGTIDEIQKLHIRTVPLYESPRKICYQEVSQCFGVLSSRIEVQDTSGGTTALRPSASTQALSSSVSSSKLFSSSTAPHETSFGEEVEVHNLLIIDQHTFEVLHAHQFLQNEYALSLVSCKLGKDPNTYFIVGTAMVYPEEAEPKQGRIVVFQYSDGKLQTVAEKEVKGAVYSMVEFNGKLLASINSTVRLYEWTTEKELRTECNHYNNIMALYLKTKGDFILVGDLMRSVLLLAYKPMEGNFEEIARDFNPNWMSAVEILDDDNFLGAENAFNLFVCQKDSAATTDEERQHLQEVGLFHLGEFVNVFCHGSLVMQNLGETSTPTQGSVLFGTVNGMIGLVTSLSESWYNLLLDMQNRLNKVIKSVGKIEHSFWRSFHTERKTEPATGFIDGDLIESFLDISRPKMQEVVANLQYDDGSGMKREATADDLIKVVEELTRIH

CCN(C)S(=O)(=O)Nc1ccc(F)c(Oc2ccc3ncn([C@H]4COC5(CCN(C6CCC(c7ccc(N[C@H]8CCC(=O)NC8=O)cc7F)CC6)CC5)C4)c(=O)c3c2)c1C#N (single isomer, unassigned) [Compound 3]
DC50 [1]: < 1000 nM | DC50 [2]: < 1000 nM | Emax [3]: < 50% | DC50 [4]: < 1000 nM | DC50 [5]: < 1000 nM | Emax [6]: < 50% | DC50 [7]: < 1000 nM | Emax [8]: < 50% | DC50 [9]: < 1000 nM

CCN(C)S(=O)(=O)Nc1ccc(F)c(Oc2ccc3ncn([C@H]4COC5(CCN(C6CCC(c7ccc(N[C@@H]8CCC(=O)NC8=O)cc7F)CC6)CC5)C4)c(=O)c3c2)c1C#N (single isomer, unassigned) [Compound 4]
DC50 [1]: < 1000 nM | DC50 [2]: < 1000 nM | Emax [3]: < 50% | DC50 [4]: < 1000 nM | DC50 [5]: < 1000 nM | Emax [6]: < 50% | DC50 [7]: < 1000 nM | Emax [8]: < 50% | DC50 [9]: < 1000 nM

CCN(C)S(=O)(=O)Nc1ccc(F)c(Oc2ccc3ncn(C4CC5(CCN(C6CCC(c7ccc(NC8CCC(=O)NC8=O)cc7F)CC6)CC5)C4)c(=O)c3c2)c1C#N (single isomer, unassigned) [Compound 6, 6-[2-cyano-3-[[ethyl(methyl)sulfamoyl]amino]-6-fluoro-phenoxy]-3-[7-[4-[4-[(2,6-dioxo-3-piperidyl)amino]-2-fluoro-phenyl]cyclohexyl]-7-azaspiro[3.5]nonan-2-yl]-4-oxo-quinazoline]
DC50 [1]: < 1000 nM | DC50 [2]: < 1000 nM | Emax [3]: < 50% | DC50 [4]: < 1000 nM | DC50 [5]: < 1000 nM | Emax [6]: < 50% | DC50 [7]: < 1000 nM | Emax [8]: < 50% | DC50 [9]: < 1000 nM

CCN(C)S(=O)(=O)Nc1ccc(F)c(Oc2ccc3ncn(C4CC5(CCN(C6CCC(c7cc8c(cc7F)c(N7CCC(=O)NC7=O)nn8C)CC6)CC5)C4)c(=O)c3c2)c1C#N (single isomer, unassigned) [Compound 8, 6-[2-cyano-3-[[ethyl(methyl)sulfamoyl]amino]-6-fluoro-phenoxy]-3-[7-[4-[3-(2,4-dioxohexahydropyrimidin-1-yl)-5-fluoro-1-methyl-indazol-6-yl]cyclohexyl]-7-azaspiro[3.5]nonan-2-yl]-4-oxo-quinazoline]
DC50 [1]: < 1000 nM | DC50 [2]: < 1000 nM | Emax [3]: < 50% | DC50 [4]: < 1000 nM | DC50 [5]: < 1000 nM | HiBiT-Degradation A375.10 BRAF 6 hours Emax [10]: *** (<=50%) | HiBiT-Degradation A375.10 BRAF 24 hours Emax [11]: *** (<=50%) | DC50 [7]: < 1000 nM | DC50 [9]: < 1000 nM

CCN(C)S(=O)(=O)Nc1ccc(F)c(Oc2ccc3ncn([C@@H]4C[C@@H]5CN(C6CCC(c7ccc(NC8CCC(=O)NC8=O)cc7F)CC6)C[C@@H]5C4)c(=O)c3c2)c1C#N (single isomer, unassigned) [Compound 21]
DC50 [1]: < 1000 nM | DC50 [2]: < 1000 nM | Emax [3]: < 50% | DC50 [4]: < 1000 nM | DC50 [5]: < 1000 nM | Emax [6]: < 50% | DC50 [7]: < 1000 nM | Emax [8]: < 50% | DC50 [9]: < 1000 nM

CCN(C)S(=O)(=O)Nc1ccc(F)c(Oc2ccc3ncn([C@H]4CCC5(CCN(C6CCC(c7ccc(NC8CCC(=O)NC8=O)cc7F)CC6)CC5)C4)c(=O)c3c2)c1C#N (single isomer, unassigned) [Compound 24]
DC50 [1]: < 1000 nM | DC50 [2]: < 1000 nM | Emax [3]: < 50% | DC50 [4]: < 1000 nM | DC50 [5]: < 1000 nM | Emax [6]: < 50% | DC50 [7]: < 1000 nM | Emax [8]: < 50% | DC50 [9]: < 1000 nM

CCN(C)S(=O)(=O)Nc1ccc(F)c(Oc2ccc3ncn([C@H]4COC5(CCN(C6CCC(c7cc8c(cc7F)c(N7CCC(=O)NC7=O)nn8C)CC6F)CC5)C4)c(=O)c3c2)c1C#N (single isomer, unassigned) [Compound 28]
DC50 [1]: < 1000 nM | DC50 [2]: < 1000 nM | DC50 [4]: < 1000 nM | DC50 [5]: < 1000 nM | Emax [6]: < 50% | DC50 [7]: < 1000 nM | Emax [8]: < 50% | DC50 [9]: < 1000 nM | Emax [12]: < 50%

CCN(C)S(=O)(=O)Nc1ccc(F)c(Oc2ccc3ncn([C@@H]4CCC5(CCN(C6CCC(c7cc8c(cc7F)c(N7CCC(=O)NC7=O)nn8C)CC6)CC5)C4)c(=O)c3c2)c1C#N (single isomer, unassigned) [Compound 31]
DC50 [1]: < 1000 nM | DC50 [2]: > 10000 nM | Emax [12]: 50 to 90%

CCN(C)S(=O)(=O)Nc1ccc(F)c(Oc2ccc3ncn([C@H]4CCC5(CCN(C6CCC(c7cc8c(cc7F)c(N7CCC(=O)NC7=O)nn8C)CC6)CC5)C4)c(=O)c3c2)c1C#N (single isomer, unassigned) [Compound 33]
DC50 [1]: < 1000 nM | DC50 [2]: < 1000 nM | DC50 [4]: < 1000 nM | DC50 [5]: < 1000 nM | Emax [6]: < 50% | DC50 [7]: < 1000 nM | Emax [8]: < 50% | DC50 [9]: < 1000 nM | Emax [12]: < 50%

CCN(C)S(=O)(=O)Nc1ccc(F)c(Oc2ccc3ncn([C@H]4COC5(CCC(N6CCC(c7cc8c(cc7F)c(N7CCC(=O)NC7=O)nn8C)C(F)(F)C6)CC5)C4)c(=O)c3c2)c1C#N (single isomer, unassigned) [Compound 38]
DC50 [1]: < 1000 nM | DC50 [2]: < 1000 nM | DC50 [4]: < 1000 nM | DC50 [5]: < 1000 nM | Emax [6]: < 50% | DC50 [7]: < 1000 nM | Emax [8]: < 50% | DC50 [9]: < 1000 nM | Emax [12]: < 50%

CCN(C)S(=O)(=O)Nc1ccc(F)c(Oc2ccc3ncn([C@H]4COC5(CCC(N6CCC(c7cc8c(cc7F)c(N7CCC(=O)NC7=O)nn8C)C(F)(F)C6)CC5)C4)c(=O)c3c2)c1C#N (single isomer, unassigned) [Compound 39]
HiBiT-Degradation A375.10 BRAF 2 hours Emax: *** (<=50%) | DC50 [1]: < 1000 nM | DC50 [2]: < 1000 nM | DC50 [4]: < 1000 nM | DC50 [5]: < 1000 nM | HiBiT-Degradation A375.10 BRAF 6 hours Emax [10]: *** (<=50%) | HiBiT-Degradation A375.10 BRAF 24 hours Emax [11]: *** (<=50%) | DC50 [7]: < 1000 nM | DC50 [9]: < 1000 nM

CCN(C)S(=O)(=O)Nc1ccc(F)c(Oc2ccc3ncn([C@H]4COC5(CCN(C6CCC(c7cc8c(cc7F)c(N7CCC(=O)NC7=O)nn8C)CC6)CC5)C4)c(=O)c3c2F)c1C#N (single isomer, unassigned) [Compound 41]
DC50 [1]: < 1000 nM | DC50 [2]: < 1000 nM | DC50 [4]: < 1000 nM | DC50 [5]: < 1000 nM | Emax [6]: < 50% | DC50 [7]: < 1000 nM | Emax [8]: < 50% | DC50 [9]: < 1000 nM | Emax [12]: < 50%

CCN(C)S(=O)(=O)Nc1ccc(F)c(Oc2ccc3ncn([C@H]4COC5(CCN(C6CCC(c7cc8c(cc7F)c(N7CCC(=O)NC7=O)nn8C)CC6O)CC5)C4)c(=O)c3c2)c1C#N (single isomer, unassigned) [Compound 43]
DC50 [1]: < 1000 nM | DC50 [2]: < 1000 nM | Emax [3]: 50 to 90% | DC50 [4]: < 1000 nM | DC50 [5]: < 1000 nM | Emax [6]: < 50% | DC50 [7]: < 1000 nM | Emax [8]: < 50% | DC50 [9]: < 1000 nM

CCN(C)S(=O)(=O)Nc1ccc(F)c(Oc2ccc3ncn([C@@H]4COC5(CCN(C6CCC(c7cc8c(cc7F)c(N7CCC(=O)NC7=O)nn8C)CC6)CC5)C4)c(=O)c3c2F)c1C#N (single isomer, unassigned) [Compound 46]
DC50 [1]: < 1000 nM | DC50 [2]: < 1000 nM | DC50 [4]: < 1000 nM | DC50 [5]: < 1000 nM | Emax [6]: < 50% | DC50 [7]: < 1000 nM | Emax [8]: < 50% | DC50 [9]: < 1000 nM | Emax [12]: < 50%

CCN(C)S(=O)(=O)Nc1ccc(F)c(Oc2ccc3ncc([C@H]4COC5(CCN(C6CCC(c7cc8c(cc7F)c(N7CCC(=O)NC7=O)nn8C)CC6)CC5)C4)nc3c2)c1C#N (single isomer, unassigned) [Compound 48]
DC50 [1]: < 1000 nM | DC50 [2]: < 1000 nM | DC50 [4]: < 1000 nM | DC50 [5]: < 1000 nM | Emax [6]: < 50% | DC50 [7]: < 1000 nM | Emax [8]: < 50% | DC50 [9]: < 1000 nM | Emax [12]: < 50%

CCN(C)S(=O)(=O)Nc1ccc(F)c(Oc2ccc3ncn([C@H]4COC5(CCN(C6CCC(c7ccc(NC8CCC(=O)NC8=O)cc7F)CC6)CC5)C4)c(=O)c3c2F)c1C#N (single isomer, unassigned) [Compound 50]
DC50 [1]: < 1000 nM | DC50 [2]: < 1000 nM | Emax [3]: < 50% | DC50 [4]: < 1000 nM | DC50 [5]: < 1000 nM | Emax [6]: < 50% | DC50 [7]: < 1000 nM | Emax [8]: < 50% | DC50 [9]: < 1000 nM

CCN(C)S(=O)(=O)Nc1ccc(F)c(Oc2ccc3ncn([C@@H]4COC5(CCN(C6CCC(c7ccc(NC8CCC(=O)NC8=O)cc7F)CC6)CC5)C4)c(=O)c3c2F)c1C#N (single isomer, unassigned) [Compound 52]
DC50 [1]: < 1000 nM | DC50 [2]: < 1000 nM | Emax [3]: < 50% | DC50 [4]: < 1000 nM | DC50 [5]: < 1000 nM | Emax [6]: < 50% | DC50 [7]: < 1000 nM | Emax [8]: < 50% | DC50 [9]: < 1000 nM
